Measured values taken from ChEMBL document CHEMBL4725228, “An aza-nucleoside, fragment-like inhibitor of the DNA repair enzyme alkyladenine glycosylase (AAG)” (Bioorg Med Chem, 2020).
pIC50: −log10 of the molar value. Active and inactive are the calls of the source. No cut-off for these calls is given here.

Molecular target: DNA-3-methyladenine glycosylase (Homo sapiens, UniProt P29372)
Assay: Inhibition of human AAG using HXO2/Loop01 oligonucleotide as substrate incubated for 2 hrs by colorimetric based microplate assay

Chain of DNA-3-methyladenine glycosylase (P29372 whole entry): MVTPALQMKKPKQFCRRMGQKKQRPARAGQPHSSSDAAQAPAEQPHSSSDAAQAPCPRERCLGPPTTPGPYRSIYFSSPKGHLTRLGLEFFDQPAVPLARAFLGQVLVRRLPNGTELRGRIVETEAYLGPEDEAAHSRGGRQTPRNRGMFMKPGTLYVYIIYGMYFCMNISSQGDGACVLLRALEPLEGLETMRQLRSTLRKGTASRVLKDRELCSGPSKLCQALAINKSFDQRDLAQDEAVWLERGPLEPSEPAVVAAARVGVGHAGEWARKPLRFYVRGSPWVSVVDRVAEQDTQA

| inhibition | pIC50 | Compound |
| --- | --- | --- |
| Active | – | OC[C@H]1CN(Cc2ncc[nH]2)C[C@@H]1O |
| Active | – | OC[C@H]1CN(Cc2ccncc2)C[C@@H]1O |

Continued, molecule first:

| Compound | inhibition | pIC50 |
| --- | --- | --- |
| OC[C@H]1CN(Cc2ccccn2)C[C@@H]1O | Active | – |
| OC[C@H]1CN(Cc2cccnc2)C[C@@H]1O | Active | – |
| OC[C@H]1CN(Cc2c[nH]cn2)C[C@@H]1O | – | 3.80 |
